The EC50 is the concentration at which the effect is half-maximal. For orientation: AC50 means the midpoint of the concentration-response curve, whichever way the signal moves. Broadly, the pIC50 is the IC50 on a negative log10 scale, so that one unit is a factor of ten. Low readings indicate a high IC50, high ones a low IC50. As usually defined, the IC50 is the concentration that inhibits the measured activity by half. One may read the CC50 as the concentration at which the toxic effect on the cells reaches its halfway point.

4 molecules from ChEMBL document CHEMBL1201862, “PubChem BioAssay data set” (2004) can be followed below.

Assay [1] addresses T1, Sphingosine 1-phosphate receptor 4 (Homo sapiens, UniProt O95977).
T1 sequence (O95977 whole entry): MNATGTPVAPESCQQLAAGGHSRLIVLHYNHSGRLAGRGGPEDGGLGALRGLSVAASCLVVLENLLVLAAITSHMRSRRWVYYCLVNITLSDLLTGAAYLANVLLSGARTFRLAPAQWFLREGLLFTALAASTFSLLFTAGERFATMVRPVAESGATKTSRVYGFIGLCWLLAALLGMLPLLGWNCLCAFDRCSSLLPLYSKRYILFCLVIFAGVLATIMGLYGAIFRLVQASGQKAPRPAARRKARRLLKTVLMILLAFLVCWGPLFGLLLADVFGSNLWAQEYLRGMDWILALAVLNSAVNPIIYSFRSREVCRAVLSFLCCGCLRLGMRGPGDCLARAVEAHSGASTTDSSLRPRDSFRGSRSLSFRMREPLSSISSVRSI
Kind of assay: Late-stage fluorescence dose response cell-based assay to identify agonists of the Sphingosine 1-Phosphate Receptor 4 (S1P4): purchased compounds EC50. [Related pubchem assays (depositor defined):AID1509, AID1523, AID1563, AID1686, AID1701, AID1801]. In kind it is functional.

Assay [2] in a line: blockers of bursicon-stimulated LGR2 cAMP reporter – cell-based, HEK293, CRE-luciferase reporter, cherry pick, set 2, dose response (AID 743343).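 Further: transfected cells were stimulated with diluted bursicon conditioned medium after compound addition.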 In kind it is functional. For orientation: Reporter assays use an easily measured gene product as a stand-in for the process of interest.
Assay [3] relates to Streptococcus. Kind of assay: GAS UMAA2166 growth inhibition – luminescence, BacTiterGlo, counter-screen for streptokinase expression inhibitor project, dose response (AID 1915).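 Further: potency for reduction of bacterial viability or growth.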 In kind it is functional, organism-based. For orientation: A counterscreen serves to expose hits that act by an unwanted route or on another target.
For assay [4], the target named is T2, Streptokinase A (Streptococcus pyogenes serotype M1, UniProt P10520).
T2 sequence (P10520 whole entry): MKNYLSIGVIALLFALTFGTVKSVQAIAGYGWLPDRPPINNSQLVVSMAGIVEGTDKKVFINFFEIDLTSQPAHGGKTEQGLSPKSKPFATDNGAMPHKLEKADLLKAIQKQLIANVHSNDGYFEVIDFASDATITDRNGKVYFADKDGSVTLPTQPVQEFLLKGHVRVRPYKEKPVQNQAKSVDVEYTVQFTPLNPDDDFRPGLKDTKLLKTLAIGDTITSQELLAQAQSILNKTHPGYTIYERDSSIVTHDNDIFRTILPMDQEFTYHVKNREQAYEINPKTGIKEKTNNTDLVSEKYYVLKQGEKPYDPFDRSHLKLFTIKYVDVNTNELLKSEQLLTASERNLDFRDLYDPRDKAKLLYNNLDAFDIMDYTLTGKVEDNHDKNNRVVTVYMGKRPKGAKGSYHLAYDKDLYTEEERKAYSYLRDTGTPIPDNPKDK
In words: viability-normalized secreted streptokinase activity reduction – plasminogen activation absorbance, OD405, dose response (AID 1914).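 Further: secreted streptokinase activity via plasminogen activation per viability signal from cell pellet.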 In kind it is functional, Streptococcus pyogenes M1 GAS.

Assay [5] deals with INS1. In words: INS-1E survival protection against cytokine death – cell-based, luminescence, retest, dose response (AID 449756).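 Further: cell death triggered by IL-1 beta plus TNF-alpha plus IFN-gamma mixture; protective hits raise ATP signal compared with cytokine alone wells.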 In kind it is functional. Particulars: Rattus norvegicus.
Assay [6] in a line: toxicity toward HepG2 liver cells – cell-based, plate reader, cherry-pick, antagonist series, cytotoxicity control, dose response (AID 743416). The class given is functional.
Assay [7] addresses T3, Beta-galactosidase (Escherichia coli, UniProt Q8VNN2). In kind it is functional.
Assay [8] can be described thus: blockade of melanocortin 4 receptor signaling – cell-based, plate reader, cherry pick, counter-screen for LGR2 antagonist project, dose response (AID 743444).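 Further: transfected HEK 293 cells stimulated with alpha-MSH peptide; potency of inhibitors of the alpha-MSH evoked signal.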 The class given is functional.
Assay [9] has as its target T4, Kappa-type opioid receptor (Homo sapiens, UniProt P41145). In kind it is functional.
A short description of assay [10]: cells. In kind it is functional.
Assay [11] concerns the target T4, Kappa-type opioid receptor. In kind it is functional. This is another data set of the same source.
Assay [12] relates to Streptococcus sp. 'group A'. In words: Streptococcus pyogenes SK(-)GAS viability under kanamycin – luminescence, BacTiterGlo, confirmation, counter-screen for streptokinase expression inhibitor project, dose response (AID 1900). In kind it is functional, organism-based.
Assay [13] is described as follows: HepG2 cell cytotoxicity, dose response, cytotoxicity control for non-replicating M. tuberculosis project (AID 489018). The class given is functional. The note with it: Mycobacterium tuberculosis.
Assay [14] can be described thus: viability loss in HEK293 cells – cell-based, plate reader, cherry-picked samples, cytotoxicity control, dose response (AID 743446). The class given is functional.
The nature of assay [15]: THP-1 cell cytotoxicity, dose response, cytotoxicity control for non-replicating M. tuberculosis project (AID 489025). The class given is functional.
Assay [16] has as its target T3, Beta-galactosidase. Kind of assay: PubChem AID 485352. In kind it is functional.
In assay [17] the target is T5, Type-1 angiotensin II receptor (Homo sapiens, UniProt P30556).
T5 sequence (P30556 whole entry): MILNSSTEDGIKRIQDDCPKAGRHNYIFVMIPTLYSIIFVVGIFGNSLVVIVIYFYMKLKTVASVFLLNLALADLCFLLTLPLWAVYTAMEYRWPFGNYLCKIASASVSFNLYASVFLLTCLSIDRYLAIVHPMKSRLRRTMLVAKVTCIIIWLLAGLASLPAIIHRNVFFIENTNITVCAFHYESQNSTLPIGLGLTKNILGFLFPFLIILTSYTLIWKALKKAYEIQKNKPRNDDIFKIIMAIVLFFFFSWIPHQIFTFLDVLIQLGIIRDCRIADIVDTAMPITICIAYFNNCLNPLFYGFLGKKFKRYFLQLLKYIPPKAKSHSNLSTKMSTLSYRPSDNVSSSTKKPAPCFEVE
In words: antagonism of angiotensin II type 1 receptor – cell-based, uHTS hits, selectivity assay for APJ receptor antagonist project, dose response (AID 463214).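 Further: antagonist potency against angiotensin II stimulated AT1 response.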 The class given is functional.

Assay [18] can be described thus: A549 cell cytotoxicity, dose response, cytotoxicity control, plate reader, cherry-pick, antagonist series (AID 743412). The class given is functional, cell-based.
Assay [19] can be described thus: Vero E6 cell cytotoxicity, dose response, cytotoxicity control for non-replicating M. tuberculosis project, secondary assay (AID 492998). The class given is functional, VeroE6. Particulars: Vero C1008.
Assay [20] concerns the target T6, Short transient receptor potential channel 4 (Mus musculus, UniProt Q9QUQ5).
T6 sequence (Q9QUQ5 whole entry): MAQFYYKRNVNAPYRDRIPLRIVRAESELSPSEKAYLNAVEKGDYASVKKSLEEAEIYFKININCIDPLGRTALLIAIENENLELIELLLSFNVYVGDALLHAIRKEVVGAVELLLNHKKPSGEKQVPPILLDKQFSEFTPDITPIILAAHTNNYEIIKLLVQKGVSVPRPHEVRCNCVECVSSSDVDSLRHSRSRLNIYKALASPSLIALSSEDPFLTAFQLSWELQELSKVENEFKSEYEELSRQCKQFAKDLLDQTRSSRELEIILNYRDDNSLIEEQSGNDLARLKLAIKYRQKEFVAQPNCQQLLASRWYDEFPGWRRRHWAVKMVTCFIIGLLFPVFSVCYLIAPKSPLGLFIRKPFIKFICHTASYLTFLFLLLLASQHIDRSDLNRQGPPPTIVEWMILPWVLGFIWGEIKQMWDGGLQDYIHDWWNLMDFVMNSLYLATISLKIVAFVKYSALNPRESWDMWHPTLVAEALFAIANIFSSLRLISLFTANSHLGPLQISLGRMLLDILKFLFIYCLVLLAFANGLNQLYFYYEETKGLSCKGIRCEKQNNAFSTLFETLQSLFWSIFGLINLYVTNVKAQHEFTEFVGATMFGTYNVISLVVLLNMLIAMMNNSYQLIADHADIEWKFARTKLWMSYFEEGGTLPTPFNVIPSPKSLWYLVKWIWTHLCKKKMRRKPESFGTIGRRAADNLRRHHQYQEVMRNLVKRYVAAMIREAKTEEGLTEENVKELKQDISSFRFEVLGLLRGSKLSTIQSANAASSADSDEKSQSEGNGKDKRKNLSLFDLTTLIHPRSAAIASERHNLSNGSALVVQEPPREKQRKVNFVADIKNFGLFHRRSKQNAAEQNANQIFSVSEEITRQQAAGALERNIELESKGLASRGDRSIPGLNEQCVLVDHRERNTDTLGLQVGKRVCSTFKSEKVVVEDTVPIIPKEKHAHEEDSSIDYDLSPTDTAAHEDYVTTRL
Kind of assay: potentiation of DAMGO-evoked TRPC4 calcium signal – cell-based, HEK293 TRPC4/mu-opioid, Fluo-4 calcium, EC20 DAMGO, dose response (AID 434941).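 Further: HEK293 cells coexpressing TRPC4 and mu opioid receptor stimulated by EC20 DAMGO.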 In kind it is functional.

Assay [21] addresses T7, X-box-binding protein 1 (Homo sapiens, UniProt P17861).
T7 sequence (P17861 whole entry): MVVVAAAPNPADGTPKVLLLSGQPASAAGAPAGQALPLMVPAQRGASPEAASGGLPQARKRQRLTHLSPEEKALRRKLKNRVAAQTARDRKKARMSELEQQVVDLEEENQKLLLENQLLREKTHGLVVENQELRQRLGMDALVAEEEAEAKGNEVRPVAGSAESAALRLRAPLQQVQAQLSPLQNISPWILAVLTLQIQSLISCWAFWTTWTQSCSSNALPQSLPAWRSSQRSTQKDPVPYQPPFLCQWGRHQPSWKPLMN
The class given is functional, Cricetulus griseus.

In assay [22] the target is Paired box protein Pax-8 (Homo sapiens, UniProt Q06710). In words: PAX8 transcriptional activity inhibition in RMG-I – RMG-I cells, luciferase, cherry-pick, dose response (AID 687027).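 Further: luciferase reporter driven by Pax8 target thyroperoxidase promoter measured by SteadyGlo luminescence.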 The class given is functional, cell-based.
Assay [23] is described as follows: Luminescence Cell-Based Dose Response HTS to Identify Inhibitors of 5'UTR Stem-Loop Driven Prion Protein mRNA Translation in H4 Neuroglioblastoma Cells. [Related pubchem assays: 1827 (Project Summary), 1813 (Primary HTS)]. The class given is functional.
Assay [24] in a line: luciferase reporter signal suppression in cells – H4 neuroglioma cells, luminescence, dose response (AID 1990). The class given is functional, cell-based.
In assay [25] the target is Phosphomannomutase 2 (Homo sapiens, UniProt O15305). Kind of assay: Counter screen SAR assay for PMM2 inhibitors via a fluorescence intensity assay. [Related pubchem assays (depositor defined):AID1545, AID1574].
Assay [26] in a line: alpha-synuclein stem-loop luciferase translation blockers – H4 neuroglioma cells, luminescence, confirmation (AID 1988). In kind it is functional, cell-based.

pIC50: −log10 of the molar value. Activity calls are given as the source filed them. Where only a bound is given, the exact number is not on record here.
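Wherever Absolute IC50 (XBP1) is given: confirmatory dose-response counter-screen serving a CHOP assay.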

T4 sequence (P41145 whole entry): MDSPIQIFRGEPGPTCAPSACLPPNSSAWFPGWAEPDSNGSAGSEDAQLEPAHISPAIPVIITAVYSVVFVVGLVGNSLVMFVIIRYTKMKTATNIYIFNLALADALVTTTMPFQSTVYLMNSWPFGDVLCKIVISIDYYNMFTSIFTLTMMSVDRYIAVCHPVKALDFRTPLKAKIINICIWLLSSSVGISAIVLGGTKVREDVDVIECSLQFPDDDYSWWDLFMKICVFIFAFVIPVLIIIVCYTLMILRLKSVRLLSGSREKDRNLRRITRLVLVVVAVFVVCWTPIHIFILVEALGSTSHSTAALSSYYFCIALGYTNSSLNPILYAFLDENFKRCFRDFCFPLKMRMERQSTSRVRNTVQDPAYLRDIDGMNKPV
T3 sequence (Q8VNN2 whole entry): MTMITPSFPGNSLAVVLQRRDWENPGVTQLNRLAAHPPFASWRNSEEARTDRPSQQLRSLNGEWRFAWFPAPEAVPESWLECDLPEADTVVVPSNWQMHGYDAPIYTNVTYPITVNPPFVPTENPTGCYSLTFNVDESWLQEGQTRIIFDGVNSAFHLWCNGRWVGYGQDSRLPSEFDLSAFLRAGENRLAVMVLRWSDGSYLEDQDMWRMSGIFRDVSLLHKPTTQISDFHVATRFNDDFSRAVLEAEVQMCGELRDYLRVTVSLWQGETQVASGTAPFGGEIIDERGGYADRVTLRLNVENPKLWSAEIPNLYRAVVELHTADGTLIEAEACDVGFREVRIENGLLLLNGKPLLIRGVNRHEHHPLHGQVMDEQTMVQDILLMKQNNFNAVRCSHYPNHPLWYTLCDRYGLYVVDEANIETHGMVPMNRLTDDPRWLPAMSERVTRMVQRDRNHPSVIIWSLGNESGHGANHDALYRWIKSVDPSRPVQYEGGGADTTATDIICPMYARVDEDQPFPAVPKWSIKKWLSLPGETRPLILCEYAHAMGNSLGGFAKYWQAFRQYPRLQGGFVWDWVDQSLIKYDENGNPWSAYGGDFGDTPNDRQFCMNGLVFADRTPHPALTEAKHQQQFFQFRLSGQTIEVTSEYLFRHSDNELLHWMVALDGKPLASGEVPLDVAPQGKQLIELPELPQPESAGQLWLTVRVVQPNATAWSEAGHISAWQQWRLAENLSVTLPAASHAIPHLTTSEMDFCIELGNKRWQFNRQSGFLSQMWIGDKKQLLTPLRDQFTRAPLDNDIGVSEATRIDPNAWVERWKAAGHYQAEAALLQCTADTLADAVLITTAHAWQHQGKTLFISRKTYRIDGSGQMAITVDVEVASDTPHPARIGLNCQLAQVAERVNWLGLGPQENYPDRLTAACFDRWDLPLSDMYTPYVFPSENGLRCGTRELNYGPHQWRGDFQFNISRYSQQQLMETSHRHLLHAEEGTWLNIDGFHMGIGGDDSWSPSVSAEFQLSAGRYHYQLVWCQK
Sequence of Paired box protein Pax-8 (Q06710 whole entry): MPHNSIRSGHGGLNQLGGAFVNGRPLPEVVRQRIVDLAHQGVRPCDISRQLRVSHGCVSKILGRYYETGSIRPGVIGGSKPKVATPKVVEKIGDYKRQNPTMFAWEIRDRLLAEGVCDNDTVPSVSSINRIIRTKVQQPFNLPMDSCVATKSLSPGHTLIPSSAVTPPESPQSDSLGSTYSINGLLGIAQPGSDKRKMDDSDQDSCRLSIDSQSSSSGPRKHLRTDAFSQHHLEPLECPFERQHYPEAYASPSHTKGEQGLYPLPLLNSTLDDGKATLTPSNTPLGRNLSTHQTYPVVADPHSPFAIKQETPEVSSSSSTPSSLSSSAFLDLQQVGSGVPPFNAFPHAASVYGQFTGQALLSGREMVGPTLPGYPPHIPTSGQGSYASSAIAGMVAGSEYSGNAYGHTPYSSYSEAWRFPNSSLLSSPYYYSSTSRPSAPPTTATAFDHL
Sequence of Phosphomannomutase 2 (O15305 whole entry): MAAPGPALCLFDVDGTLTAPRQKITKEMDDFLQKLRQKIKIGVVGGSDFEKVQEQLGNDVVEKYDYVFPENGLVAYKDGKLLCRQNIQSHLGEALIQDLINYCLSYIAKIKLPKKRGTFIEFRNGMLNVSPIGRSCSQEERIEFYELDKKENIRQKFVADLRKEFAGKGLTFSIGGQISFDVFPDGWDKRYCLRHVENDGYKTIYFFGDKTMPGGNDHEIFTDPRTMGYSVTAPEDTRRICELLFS

In the case of `COc1ccc(OCCOc2ccc(C)nc2[N+](=O)[O-])cc1`, the EC50 in [1] was > 50 µM (inactive).

`O=C(Nc1nc2ccc(F)cc2s1)c1ccccn1`: the AC50 was 1.21 µM (active) in assay [2]; 2.72 µM (active) in assay [5]; 10 µM (active) in assay [6]; 1.61 µM (active) in [8]; 8.2 µM (active) in assay [14]; 3.57 µM (active) in assay [18]. Also, the EC50 in assay [3] was 10.1 µM (active); in assay [4], > 150 µM (not active); in [7], > 31.5 µM (inactive); in assay [12] it was 2.5 µM (active); in assay [16], > 40 µM (inactive). In assay [9], this molecule showed a pIC50 of less than 4.49. In addition, the figures for the IC50 in [10], in assay [11] and in assay [17] were < 0.1 µM (active), 4.6 µM (active) and 3.96 µM (active), respectively. Besides, the half-maximal cytotoxic concentration (CC50) in assay [13] was > 5 µM (active); in [15] it was 0.982 µM (active); in assay [19] it was 3.18 µM (active).

For the molecule `Cc1ccc(/C=N/NC(=O)NC2CCCCC2)o1`, the EC50 in assay [20] is 3.35 µM (active).

Consider `CCSc1nc(-c2ccccc2)nc(C(Cl)Cl)n1`, for which the “Absolute IC50 (XBP1)” value in assay [21] worked out at 10 µM. Moreover, the AC50 in assay [22] was 1.95 µM (active). The results for the concentration giving a half-maximal response (EC50) in [23], in assay [24] and in [26] were 5.98 µM (active), > 120 µM (not active) and 1.11 µM (active), respectively. The IC50 in [25] was > 100 µM (inactive).
